Measured values: patent publication US20120190752A1, “EXO-S-MECAMYLAMINE METHOD, USE, AND COMPOUND FOR TREATMENT” (Targacept Inc., priority 2009, published 2012)

Tested on: subjects with major depressive disorder (MDD) who were inadequate responders to citalopram
Test: CGI-I / CGI-GI (Clinical Global Impression-Improvement), Phase 2b add-on trial
Type: in vivo, human
Description: The Clinical Global Impression—Improvement scale (CGI-I) is a 7 point scale that requires the clinician to assess how much the patient's illness has improved or worsened relative to a baseline state at the beginning of the intervention. The Clinical Global Impression—Efficacy Index is a 4 point×4 point rating scale that assesses the therapeutic effect of the treatment. In more detail, a multi-center double-blind, randomized, placebo-controlled, parallel group, flexible dose titration study of TC-5214 as adjunctive therapy in subjects with major depressive disorder (MDD) who were inadequate responders to citalopram was conducted in centers in the US and India. The study consisted of a screening period, baseline/washout period, open-label phase, double-blind phase, and a follow-up visit. Subject participation in the study could continue for up to 16 weeks of treatment. Following a washout period of up to 28 days for other antidepressants, subjects with MDD and a MADRS total score >/=28 and a Clinical Global Impression-Severity (CGI-S) score >/=4 were enrolled on Day 1 into an open-label citalopram-only phase of the study. This phase lasted 8 weeks, with citalopram (CIT) dose increased from a once-daily dose of 20 mg (Day 1 through Week 4) to 40 mg (Week 4 through Week 8). A total of 579 subjects entered the open-label citalopram phase. At Week 8, subjects who tolerated 40 mg CIT, but whose MADRS score was reduced <50% from baseline and no lower than 17, and CGI-S≧4, were considered inadequate responders. These subjects (n=270) were randomized in a double-blind fashion to receive either placebo or TC-5214-23 as add-on therapy to continued CIT. The double-blind phase of the study also lasted 8 weeks (Week 8 to Week 16). Study drug, TC-5214-23 or placebo, was started at 2 mg daily (1 mg twice per day [BID] dosing), added on to continuing CIT (40 mg PO qd). After 2 weeks of treatment, the dose of TC-5214 could be increased to 4 mg (2 mg BID) or continued unchanged, with up-titration based upon good tolerability and inadequate therapeutic response. After a further 2 weeks, the dose of TC-5214 could be increased again to 8 mg (4 mg BID) if judged appropriate by the investigator, based upon good tolerability and inadequate therapeutic response. At any time during the double-blind phase of the study, placebo or TC-5214-23 could be reduced to the previous dose level following the emergence of unacceptable adverse events (AEs). […] At this follow-up, any signs or symptoms of relapse were evaluated. If a subject was prematurely discontinued from the study between Week 8 and Week 16 for any reason, the investigator was to make every effort to perform all evaluations as per protocol, assuming the subject had reached the end of the double-blind add-on treatment phase. These evaluations were to be made as soon as possible and within 2 weeks of discontinuation. […] There was no meaningful difference in results as a function of age, gender, site, or smoking status. With regard to efficacy endpoints, the following tables present efficacy used in the ITT (Intent-to-Treat) and PP (Per Protocol) populations unless otherwise specific. The primary inference was based upon Week 16 visit using the ITT population. Change from baseline was obtained by subtracting the baseline values from the individual on-treatment values. Change from Week 16 was obtained by subtracting the Week 16 values from the individual follow-up visit (Week 18/19) values. If either the baseline or Week 16 or on-treatment or follow-up value was missing, the change from baseline or Week 16 value was also set to missing. To account for missing data, the last observation carry forward (LOCF) method was used for the ITT and PP populations. Thus, the last available on-therapy observation for a subject, including the observation at premature discontinuation, was used to estimate subsequent missing data points. […]

[1] = ITT Population, Double Blind Week 16 LOCF
[2] = ITT Population, Double Blind Week 18 LOCF (Follow-up)
[3] = PP Population, Double Blind Week 16 LOCF
[4] = PP Population, Double Blind Week 18 LOCF (Follow-up)

**Q.** What does the source list for `CNC1(C)C2CCC(C2)C1(C)C` (stereo in doubt) [TC-5214, (S)—N,2,3,3-tetramethylnorbornan-2-amine]?
**A.** CGI-I Adjusted Mean [1]: 1.91; CGI-I Mean Difference between TC-5214 and Placebo [1]: 0.79; CGI-I Adjusted Mean [2]: 1.90; CGI-I Mean Difference between TC-5214 and Placebo [2]: 0.71; CGI-I score compared with placebo (ITT and PP populations, Week 16 and Week 18, result in words): statistically significant decreases (improvements); CGI-GI Difference vs Placebo + CIT (ITT, Week 16 LOCF): −0.79; CGI-GI Adj. Mean (ITT, Week 16 LOCF, add-on to citalopram): 1.91; CGI-I Adjusted Mean [3]: 1.84; CGI-I Mean Difference between TC-5214 and Placebo [3]: 0.78; CGI-I Adjusted Mean [4]: 1.83; CGI-I Mean Difference between TC-5214 and Placebo [4]: 0.71
